Reference: ChEMBL document CHEMBL4346723, “Targeting tropomyosin receptor kinase for cancer therapy” (Eur J Med Chem, 2019)
Each block holds one molecule with its values, some of them ahead of it.

Key:
[1] = Inhibition of TRK (unknown origin); set-up: species or system Homo sapiens
[2] = molecular target: T1, High affinity nerve growth factor receptor (Homo sapiens, UniProt P04629); assay: Inhibition TRKA (unknown origin)
NTRK1/NTRK2 = NTRK1/NTRK2 (Homo sapiens, UniProt P04629+Q16620); assay: Inhibition of TRKA/TRKB (unknown origin); type: protein assay
[3] = molecular target: T1, High affinity nerve growth factor receptor; assay: Inhibition of recombinant full length human TRKA expressed in U2OS cells using Poly(Glu:Tyr) as substrate after 30 mins by scintillation counting assay
[4] = molecular target: T2, BDNF/NT-3 growth factors receptor (Homo sapiens, UniProt Q16620); assay: Inhibition of N- terminal GST-tagged human TRKB cytoplasmic domain (456 to 822 end residues) expressed in baculovirus expression system using TK peptide as substrate after 60 mins by HTRF assay
T2 sequence (Q16620 whole entry, the tested form may be a part): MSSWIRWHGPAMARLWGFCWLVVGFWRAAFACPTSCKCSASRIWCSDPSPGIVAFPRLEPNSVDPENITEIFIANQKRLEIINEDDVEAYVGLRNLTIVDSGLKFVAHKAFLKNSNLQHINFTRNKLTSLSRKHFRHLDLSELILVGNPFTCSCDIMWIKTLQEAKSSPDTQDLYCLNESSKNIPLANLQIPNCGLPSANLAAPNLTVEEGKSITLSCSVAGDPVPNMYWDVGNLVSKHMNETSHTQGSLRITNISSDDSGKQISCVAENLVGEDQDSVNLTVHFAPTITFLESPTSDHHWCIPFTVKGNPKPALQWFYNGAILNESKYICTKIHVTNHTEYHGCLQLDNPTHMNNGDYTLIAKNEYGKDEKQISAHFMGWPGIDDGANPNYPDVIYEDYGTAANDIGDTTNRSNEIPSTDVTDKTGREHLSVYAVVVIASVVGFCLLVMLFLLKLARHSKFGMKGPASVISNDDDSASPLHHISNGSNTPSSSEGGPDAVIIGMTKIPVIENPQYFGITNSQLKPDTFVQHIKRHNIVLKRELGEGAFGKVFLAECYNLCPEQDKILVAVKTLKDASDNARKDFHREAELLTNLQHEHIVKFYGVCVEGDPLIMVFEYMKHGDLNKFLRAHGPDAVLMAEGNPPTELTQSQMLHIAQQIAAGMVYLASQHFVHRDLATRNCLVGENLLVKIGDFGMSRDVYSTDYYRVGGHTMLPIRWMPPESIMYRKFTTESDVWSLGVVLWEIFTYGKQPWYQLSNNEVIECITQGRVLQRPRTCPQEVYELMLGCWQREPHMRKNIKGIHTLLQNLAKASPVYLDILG

[5] = molecular target: T1, High affinity nerve growth factor receptor; assay: Inhibition of N- terminal GST-tagged human TRKA cytoplasmic domain (436 to 790 end residues) using TK peptide as substrate after 60 mins by HTRF assay
[6] = molecular target: T3, Tyrosine-protein kinase JAK2 (Homo sapiens, UniProt O60674); assay: Inhibition of N-terminal His-tagged human JAK2 catalytic domain (826 to 1132 end residues) expressed in baculovirus expression system using TK peptide as substrate after 120 mins by HTRF assay
T3 sequence (O60674 whole entry, the tested form may be a part): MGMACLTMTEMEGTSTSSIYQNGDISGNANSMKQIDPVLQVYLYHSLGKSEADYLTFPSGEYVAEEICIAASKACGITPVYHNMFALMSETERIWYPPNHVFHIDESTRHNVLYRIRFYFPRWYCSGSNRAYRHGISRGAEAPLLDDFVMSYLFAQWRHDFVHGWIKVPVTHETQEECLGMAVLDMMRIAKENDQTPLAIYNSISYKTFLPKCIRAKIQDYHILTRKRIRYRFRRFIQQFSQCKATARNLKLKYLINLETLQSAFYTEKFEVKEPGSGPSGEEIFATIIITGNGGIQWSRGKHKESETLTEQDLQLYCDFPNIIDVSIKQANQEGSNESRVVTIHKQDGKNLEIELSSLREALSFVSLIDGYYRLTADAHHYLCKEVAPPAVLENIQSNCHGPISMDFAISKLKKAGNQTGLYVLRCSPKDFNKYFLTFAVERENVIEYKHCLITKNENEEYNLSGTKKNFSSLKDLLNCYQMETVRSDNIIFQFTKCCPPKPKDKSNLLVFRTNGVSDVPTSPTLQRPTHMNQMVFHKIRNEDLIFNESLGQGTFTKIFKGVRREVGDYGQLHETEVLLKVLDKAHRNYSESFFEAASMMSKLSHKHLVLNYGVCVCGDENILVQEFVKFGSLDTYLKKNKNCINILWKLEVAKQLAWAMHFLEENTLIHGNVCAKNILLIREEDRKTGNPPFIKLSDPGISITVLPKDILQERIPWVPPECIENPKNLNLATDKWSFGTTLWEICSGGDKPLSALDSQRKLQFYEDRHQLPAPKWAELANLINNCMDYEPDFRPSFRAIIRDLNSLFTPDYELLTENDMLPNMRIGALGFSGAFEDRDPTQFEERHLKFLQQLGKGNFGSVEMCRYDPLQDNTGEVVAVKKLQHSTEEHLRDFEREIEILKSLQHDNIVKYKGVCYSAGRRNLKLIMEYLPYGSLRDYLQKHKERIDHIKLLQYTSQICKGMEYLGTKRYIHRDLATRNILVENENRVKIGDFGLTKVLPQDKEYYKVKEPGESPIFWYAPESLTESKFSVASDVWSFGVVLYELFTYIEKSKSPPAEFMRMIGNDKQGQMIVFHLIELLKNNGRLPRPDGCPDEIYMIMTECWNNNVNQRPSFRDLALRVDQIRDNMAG

[7] = molecular target: NT-3 growth factor receptor (Homo sapiens, UniProt Q16288); assay: Inhibition of N- terminal GST-tagged human TRKC catalytic domain (456 to 825 end residues) expressed in baculovirus expression system using TK peptide as substrate after 60 mins by HTRF assay
Chain of NT-3 growth factor receptor (Q16288 whole entry, the tested form may be a part): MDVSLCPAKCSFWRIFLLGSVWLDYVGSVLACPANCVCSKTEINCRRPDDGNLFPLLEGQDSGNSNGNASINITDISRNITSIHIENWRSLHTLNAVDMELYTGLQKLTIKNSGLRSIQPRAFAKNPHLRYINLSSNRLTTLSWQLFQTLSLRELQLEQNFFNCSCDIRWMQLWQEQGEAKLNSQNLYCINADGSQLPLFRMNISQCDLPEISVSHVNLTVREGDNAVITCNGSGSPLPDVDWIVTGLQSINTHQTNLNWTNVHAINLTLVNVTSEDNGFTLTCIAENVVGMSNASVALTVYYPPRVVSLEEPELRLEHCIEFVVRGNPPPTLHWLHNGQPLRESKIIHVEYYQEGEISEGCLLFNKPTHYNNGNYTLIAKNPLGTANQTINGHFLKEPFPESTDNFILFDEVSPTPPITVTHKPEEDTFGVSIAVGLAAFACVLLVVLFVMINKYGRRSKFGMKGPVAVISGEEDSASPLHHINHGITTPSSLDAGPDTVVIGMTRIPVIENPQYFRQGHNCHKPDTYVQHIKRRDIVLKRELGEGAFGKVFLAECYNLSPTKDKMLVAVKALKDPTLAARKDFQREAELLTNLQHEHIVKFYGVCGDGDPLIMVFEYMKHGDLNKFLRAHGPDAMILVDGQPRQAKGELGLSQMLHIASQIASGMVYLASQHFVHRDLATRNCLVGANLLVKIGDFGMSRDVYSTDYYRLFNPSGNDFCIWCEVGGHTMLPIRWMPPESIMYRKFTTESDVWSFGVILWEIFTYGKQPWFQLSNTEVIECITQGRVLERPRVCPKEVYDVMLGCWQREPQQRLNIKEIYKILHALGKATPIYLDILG

[8] = molecular target: T3, Tyrosine-protein kinase JAK2; assay: Inhibition of recombinant C-terminal His6-tagged human JAK2 (808 to end residues) expressed in baculovirus infected SF21 insect cells using Tyr 1054/1055 biotinylated peptide as substrate after 60 mins by Alphascreen assay
[9] = molecular target: T1, High affinity nerve growth factor receptor; assay: Inhibition of recombinant N- terminal GST-tagged human NTRK1 expressed in baculovirus infected Sf9 cells using Poly(Glu:Tyr) as substrate after 45 mins
[10] = molecular target: T3, Tyrosine-protein kinase JAK2; assay: Inhibition of recombinant C-terminal His6-tagged human JAK2 (808 to end residues) expressed in baculovirus infected SF21 insect cells at 3 uM using Tyr 1054/1055 biotinylated peptide as substrate after 60 mins by Alphascreen assay relative to control
[11] = molecular target: T1, High affinity nerve growth factor receptor; assay: Inhibition of TRKA (unknown origin) using poly GT as substrate preincubated for 30 mins followed by substrate addition measured after 30 mins by TR-FRET Assay
SU-DHL-1 = assay: cells; details: Homo sapiens, SU-DHL-1, 48 h
Description: Antiproliferative activity against human SU-DHL1 cells incubated for 48 hrs by sulforhodamine B assay

cells [12] = details: Homo sapiens, SUP-M2, 48 h
Description: Antiproliferative activity against human SUP-M2 cells incubated for 48 hrs by sulforhodamine B assay

MV4-11 = assay: cells; details: Homo sapiens, MV4-11, 48 h
Description: Antiproliferative activity against human MV4-11 cells incubated for 48 hrs by sulforhodamine B assay

cells [13] = details: Homo sapiens, SR-786, 48 h
Description: Antiproliferative activity against human SR786 cells incubated for 48 hrs by sulforhodamine B assay

KARPAS-299 = assay: cells; details: Homo sapiens, KARPAS-299, 48 h
Description: Antiproliferative activity against human KARPAS299 cells incubated for 48 hrs by sulforhodamine B assay

[14] = molecular target: T1, High affinity nerve growth factor receptor; assay: Inhibition of NTRK1 in human KM12 cells; type: cell-based
OVCAR-3 = assay: Cytotoxicity against human OVCAR3 cells after 24 to 72 hrs by MTT assay; type: functional, cell-based
SK-OV-3 = assay: Cytotoxicity against human SKOV3 cells after 24 to 72 hrs by MTT assay; type: functional, cell-based
[15] = molecular target: T1, High affinity nerve growth factor receptor; assay: Inhibition TRKA (unknown origin) by cell based assay
[16] = molecular target: T1, High affinity nerve growth factor receptor; assay: Inhibition of human TRKA expressed in human AD293 cells assessed as reduction in TrkA phosphorylation at Tyr490 residues preincubated for 20 mins followed by NGF-stimulation measure after 5 mins by ELISA; type: cell-based
[17] = molecular target: Tyrosine-protein kinase BTK (Homo sapiens, UniProt Q06187); assay: Inhibition of BTK (unknown origin)
Chain of Tyrosine-protein kinase BTK (Q06187 whole entry): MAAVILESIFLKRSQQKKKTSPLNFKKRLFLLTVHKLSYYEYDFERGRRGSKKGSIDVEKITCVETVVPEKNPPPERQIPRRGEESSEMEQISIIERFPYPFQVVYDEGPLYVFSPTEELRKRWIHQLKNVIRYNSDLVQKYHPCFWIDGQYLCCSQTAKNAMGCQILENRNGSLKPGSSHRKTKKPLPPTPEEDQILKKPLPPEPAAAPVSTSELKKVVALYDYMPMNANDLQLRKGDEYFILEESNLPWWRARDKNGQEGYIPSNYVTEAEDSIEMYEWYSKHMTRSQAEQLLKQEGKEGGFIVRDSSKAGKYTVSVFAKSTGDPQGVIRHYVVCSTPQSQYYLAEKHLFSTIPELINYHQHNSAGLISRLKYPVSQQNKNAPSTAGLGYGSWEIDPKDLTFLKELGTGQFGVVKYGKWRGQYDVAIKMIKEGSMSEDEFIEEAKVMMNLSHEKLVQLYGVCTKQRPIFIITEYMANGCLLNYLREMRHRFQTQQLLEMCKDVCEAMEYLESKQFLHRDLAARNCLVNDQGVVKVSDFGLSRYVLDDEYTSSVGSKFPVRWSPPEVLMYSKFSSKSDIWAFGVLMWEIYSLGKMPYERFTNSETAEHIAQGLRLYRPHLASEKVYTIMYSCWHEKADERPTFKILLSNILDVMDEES

[18] = molecular target: T2, BDNF/NT-3 growth factors receptor; assay: Inhibition of TRKB (unknown origin)

T1 sequence (P04629 whole entry): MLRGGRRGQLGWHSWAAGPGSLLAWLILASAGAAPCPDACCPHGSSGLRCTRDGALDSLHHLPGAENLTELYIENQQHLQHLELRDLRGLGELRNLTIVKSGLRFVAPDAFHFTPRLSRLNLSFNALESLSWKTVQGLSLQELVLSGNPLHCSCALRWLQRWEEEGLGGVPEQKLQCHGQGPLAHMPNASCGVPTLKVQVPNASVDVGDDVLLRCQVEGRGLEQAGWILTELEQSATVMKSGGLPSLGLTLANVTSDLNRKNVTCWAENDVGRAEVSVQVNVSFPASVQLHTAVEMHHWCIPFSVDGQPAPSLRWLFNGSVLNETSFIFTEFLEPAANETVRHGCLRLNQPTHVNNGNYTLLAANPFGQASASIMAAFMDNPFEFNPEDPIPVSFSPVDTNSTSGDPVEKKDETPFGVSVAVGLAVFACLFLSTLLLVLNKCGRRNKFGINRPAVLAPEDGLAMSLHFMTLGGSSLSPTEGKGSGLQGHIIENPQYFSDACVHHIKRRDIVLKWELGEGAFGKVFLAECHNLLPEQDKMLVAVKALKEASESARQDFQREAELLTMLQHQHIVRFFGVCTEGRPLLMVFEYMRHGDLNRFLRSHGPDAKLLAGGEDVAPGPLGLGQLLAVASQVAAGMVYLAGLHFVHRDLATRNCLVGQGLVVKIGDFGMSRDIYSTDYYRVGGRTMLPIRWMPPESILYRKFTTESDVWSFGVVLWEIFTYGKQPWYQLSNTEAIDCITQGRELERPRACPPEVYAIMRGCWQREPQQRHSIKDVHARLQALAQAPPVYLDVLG

Molecule: CC(C)c1cc(C(=O)c2cccc(NC(=O)Nc3ccc(Cl)cc3Cl)c2)c2c(N)ncnn12
IC50 [2]: < 1 nM
IC50 (NTRK1/NTRK2): < 1 nM

Molecule: NC(=O)c1c(N)nn2cc(N3CCC[C@@H]3c3cc(F)ccc3F)cnc12
IC50 [4]: < 10 nM
IC50 [5]: < 1 nM
IC50 [6]: > 2000 nM
IC50 [7]: < 10 nM

Molecule: CS(=N)(=O)c1ccc(-c2ccc(CNC(=O)Cn3c4c(c5cc(F)ccc53)CCn3nccc3-4)nc2)cc1 (stereo not given)
IC50 [3]: 0.7 to 1 nM

Molecule: O=C(Nc1ccc(F)cc1)c1cnc2ccc(N3CCCC3c3cc(F)ccc3F)cn12 (stereo not given)
IC50 [11]: < 50 nM

Molecule: CN1CCN(c2ccc(C(=O)Nc3n[nH]c4ccc(Cc5cc(F)cc(F)c5)cc34)c(NC3CCOCC3)c2)CC1 [ENTRECTINIB]
IC50 (SU-DHL-1): 20 nM
IC50 (cells [12]): 41 nM
IC50 (MV4-11): 81 nM
IC50 (cells [13]): 81 nM
IC50 (KARPAS-299): 31 nM

Molecule: H-NTDLLNSNDNG-OH
IC50 (OVCAR-3): 200 nM
IC50 (SK-OV-3): 200 nM

Molecule: O=C(c1cnc2ccc(N3CCCC3c3cc(F)ccc3F)cn12)N1CC[C@H](O)C1 (stereo not given in full)
IC50 [11]: < 50 nM

Molecule: COCCN1C[C@@H](NC(=O)Nc2c(C)c(-c3cnn(C)c3)nn2-c2ccccc2)[C@H](c2ccccc2)C1
IC50 [3]: 1.7 nM
IC50 [15]: 6.1 nM

Molecule: H-TGLDSDGLYQN-OH
IC50 (OVCAR-3): 200 nM
IC50 (SK-OV-3): 200 nM

Molecule: O=C(Cn1c2c(c3cc(F)ccc31)CCn1nccc1-2)NCc1ccc(-c2c(F)cccc2F)cn1
IC50 [3]: 0.9 to 1 nM

Molecule: CC(C)c1cc(C(=O)c2cccc(NC(=O)Nc3ccccc3)c2)c2c(N)ncnn12
IC50 (NTRK1/NTRK2): < 1 nM

Molecule: COCCN1C[C@@H](NC(=O)Nc2cc3ccccc3nc2-c2ccccc2)[C@H](c2ccccc2)C1
IC50 [16]: < 100 nM

Molecule: CC(C)N1Cc2cc(cc(F)c2Cl)O[C@@H](C)CNC(=O)c2cnn3ccc1nc23
IC50 [17]: 0.536 nM
IC50 [18]: 1500 nM
IC50 [3]: 0.2 nM

Second part, the molecule after the results:

IC50 [1]: 87 nM
Molecule: COc1ccc2nc(N[C@@H](CO)c3ccc(F)cc3)nc(Nc3cc(C4CC4)[nH]n3)c2c1

IC50 [3]: 48 nM
Molecule: Cc1nc(-c2ccccc2)c(NC(=O)Nc2cnc3ccccn23)s1

IC50 [1]: 59 nM
Molecule: OCC[C@H](Nc1nc(Nc2cc(C3CC3)[nH]n2)c2sccc2n1)c1ccc(F)cc1

IC50 [8]: 33 nM
Molecule: Cc1cc(Nc2cnc(C#N)c(N[C@@H](C)c3ccc(F)cc3)n2)n[nH]1

IC50 [1]: 109 nM
Molecule: C[C@H](Nc1nc(Nc2cc(C3CC3)[nH]n2)c(Cl)cc1Cl)c1ccc(F)cc1

IC50 [9]: < 10 nM
Molecule: CC(C)(C)c1nnc(-c2cnn3ccc(N4CCCC4c4cc(F)ccc4F)nc23)o1 (stereo not given)

inhibition [10]: 100%
Molecule: Cc1cc(Nc2cncc(N[C@@H](C)c3ccc(F)cc3)n2)n[nH]1

IC50 [1]: 1240 nM
Molecule: C[C@H](Nc1cc(NCCO)c([N+](=O)[O-])c(Nc2cc(C3CC3)[nH]n2)c1)c1ccc(F)cc1

IC50 [14]: < 10 nM
Molecule: COc1ncc(F)cc1[C@H]1C[C@H](F)CN1c1ccn2ncc(C#N)c2n1

IC50 [9]: < 10 nM
Molecule: CC(C)c1nnc(-c2cnn3ccc(N4CCCC4c4cc(F)ccc4F)nc23)o1 (stereo not given)

IC50 [1]: 10 nM
Molecule: C[C@H](Nc1ncc(F)c(Nc2cc(C3CC3)[nH]n2)n1)c1ccc(F)cn1

IC50 [1]: > 1000 nM
Molecule: CS(=O)(=O)Nc1cccc(-c2c[nH]c3ncc(-c4cncc(NS(=O)(=O)c5ccccc5)c4)cc23)c1

IC50 [1]: 611 nM
Molecule: C[C@H](Nc1nc(Nc2cc(C3CC3)[nH]n2)c(F)cc1CNC(=O)C1CCC(=O)N1)c1ccc(F)cc1 (stereo not given in full)

IC50 [4]: < 10 nM
IC50 [5]: < 1 nM
IC50 [6]: > 500 nM
IC50 [7]: < 10 nM
Molecule: Nc1nn2cc(N3CCC[C@@H]3c3cc(F)ccc3F)cnc2c1C(=O)Nc1ccc(F)cc1

IC50 [1]: 859 nM
Molecule: N#Cc1cc([N+](=O)[O-])c(Nc2cc(C3CC3)[nH]n2)cc1N[C@@H](CO)c1ccc(F)cc1

IC50 [1]: 63 nM
Molecule: C[C@H](Nc1ccc([N+](=O)[O-])c(Nc2cc(C3CC3)[nH]n2)n1)c1ccc(F)cc1
